Measured values: BindingDB's records for doi:10.1021/jm9000242 (Bristol Myers Squibb, 2009)
pIC50: −log10 of the molar value.

Target: T1, Corticotropin-releasing factor receptor 1 (Rattus norvegicus, UniProt P35353)
T1 sequence (P35353 whole entry): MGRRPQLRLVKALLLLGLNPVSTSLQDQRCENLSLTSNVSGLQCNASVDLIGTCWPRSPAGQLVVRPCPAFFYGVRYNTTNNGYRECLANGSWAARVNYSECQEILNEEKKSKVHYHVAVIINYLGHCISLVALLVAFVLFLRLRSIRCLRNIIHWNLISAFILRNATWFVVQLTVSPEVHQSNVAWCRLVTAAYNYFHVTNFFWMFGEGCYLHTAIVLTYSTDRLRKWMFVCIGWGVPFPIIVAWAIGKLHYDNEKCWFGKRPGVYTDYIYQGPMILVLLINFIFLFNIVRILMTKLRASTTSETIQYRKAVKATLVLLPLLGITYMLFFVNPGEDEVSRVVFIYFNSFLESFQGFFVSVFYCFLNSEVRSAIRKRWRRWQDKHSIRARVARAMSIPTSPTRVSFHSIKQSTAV
Assay: In Vitro Binding Autoradiography
Description: Naive rats were sacrificed by decapitation, and the brain and pituitary were collected. Slide-mounted brain sections were preincubated in an assay solution containing [125I]oCRF for 2 h at room temperature. Concentration-related displacement of test compound was assessed by including the compound in the incubation solution. The adjacent sections were incubated under the same conditions in the presence of 1 uM alpha-helical CRF for defining nonspecific binding for CRF receptor. Nonspecific binding for CRF1 receptors was defined by 1 uM DMP696 or CP-154,526. After incubation, the sections were rinsed, dried, and then placed in cassettes against iodine-sensitive storage phosphor-imaging screens (PerkinElmer Life Sciences), and the screens were then digitally scanned with a Cyclone storage phosphor-imaging system (PerkinElmer Life Sciences). Captured storage phosphor images were analyzed with OptiQuant Acquisition and Analysis software (PerkinElmer Life Sciences).

SMILES: CC[C@@H](C)Nc1nc(C)nc2c(-c3c(C)cc(OC)cc3OC)c(C)nn12 [Pyrazolo[1,5-a]-1,3,5-triazine, 12-16]
- pIC50 (pH 7.2, 23 °C): 8.24

SMILES: CCCN(CC1CC1)c1nc(C)nc2c(-c3c(C)cc(OC)cc3OC)c(C)nn12 [Pyrazolo[1,5-a]-1,3,5-triazine, 12-22]
- pIC50 (pH 7.2, 23 °C): 8.83

SMILES: CCCCN(C)c1nc(C)nc2c(-c3c(C)cc(OC)cc3C)c(C)nn12 [Pyrazolo[1,5-a]-1,3,5-triazine, 12-32]
- pIC50 (25 °C): 8.37
